In test [1] the test system is NCI-H69. Briefly: Inhibitory activity against drug resistant H69/LX4 line overexpressing P-glycoprotein. The test is classed as functional, cell-based. As to conditions: Homo sapiens.
Test [2] in a line: Ratio of IC50 in the cell -doxorubicin-resistant Jurkat (JL D) / JL C. The test is classed as functional.
The test system of the next test is P388. Description: Inhibitory activity against murine P388 leukemia (P388) cells. The test is classed as functional, cell-based. As to conditions: Mus musculus.
Test [3] is described as follows: Ratio of IC50 in the cell -amsacrine-resistant Jurkat (JL A) / JL C. The format is functional.
Test [4] in a line: Inhibitory concentration to reduce cell number to 50% in a panel of cultured, wild type human Jurkat leukemia (JL C) cells. The test is classed as functional, cell-based.
The subject of test [5] is NCI-H69. Briefly: Inhibitory activity against parental human small cell lung carcinoma cell line (H69P). The format is functional, cell-based.
Test [6] relates to Lewis lung carcinoma cell line. Briefly: Inhibitory concentration to reduce cell number to 50% in a panel of cultured, murine Lewis lung carcinoma (LL) cells. The test is classed as functional, cell-based. As to conditions: Mus musculus.
The subject of another test is P388 (Mus musculus). Description: Inhibitory concentration to reduce cell number to 50% in a panel of cultured, murine P388 leukemia (P388) cells.

Molecules are shown by their SMILES. pIC50: −log10 of the molar value.

The pIC50 is the IC50 on a negative log10 scale, so that one unit is a factor of ten.

Take `CN(C)CCNC(=O)c1cccc2nc3ccc4ccccc4c3nc12`: the pIC50 in the test with NCI-H69 [1] (read-out: IC50) is 8.72; in the test with P388, 7.43; in test [4], 7.03; in the test with NCI-H69 [5], 7.17; in test [6] it was 7.64. For the same compound, the Ratio in test [2] came out at 0.9; in test [3], 0.8.
In the case of `COc1cccc2c1ccc1nc3cccc(C(=O)NCCN(C)C)c3nc12`, the values for the pIC50 with NCI-H69 [1] (read-out: IC50), in the test on P388 and in the test with NCI-H69 [5] were 8.85, 8.03 and 7.46, respectively.
As for `CN(C)CCNC(=O)c1cccc2nc3ccc4cnn(C)c4c3nc12`, the pIC50 is 9.04 with NCI-H69 [1] (read-out: IC50); 8.08 in the test on P388; 7.36 in test [4]; 6.96 with NCI-H69 [5]; 8.23 in test [6]. Besides, the Ratio is reported as 1.1 in test [2] and 1 in test [3].
On to `COc1cccc2c1ccc1nc3cccc(C(=O)N[C@H](C)CN(C)C)c3nc12`, for which the pIC50 with NCI-H69 [1] (read-out: IC50) was 8.92; in the test with P388 it was 8.00; in the test on NCI-H69 [5], 7.64.
Turning to `CN(C)CCNC(=O)c1cccc2nc3ccc4cnccc4c3nc12`, the pIC50 in the test with NCI-H69 [1] (read-out: IC50) was 9.19; in the test on P388, 8.25; in test [4], 7.55; in the test with NCI-H69 [5], 7.06; in test [6], 8.19. Further, the Ratio in test [2] is reported as 2.8; in test [3], 3.
With `CN(C)CCNC(=O)c1cccc2nc3ccc4c(cnn4C)c3nc12`, the negative-log IC50 (pIC50) was 8.92 in the test on NCI-H69 [1] (read-out: IC50); 7.01 in test [4]; 7.23 in the test on P388 (Mus musculus); 6.89 with NCI-H69 [5]; 7.60 in test [6]. Further, the Ratio in test [2] and in test [3] was 0.8 throughout.
As for `CN(C)CCNC(=O)c1cccc2nc3ccc4cccnc4c3nc12`, the pIC50 with NCI-H69 [1] (read-out: IC50) was 8.68; in test [4] it was 6.50; in the test with NCI-H69 [5] it was 6.53; in test [6] it was 7.05. Also, the values for the Ratio in test [2] and in test [3] were 0.9 and 0.7, respectively.
On to `CN(C)CCNC(=O)c1cccc2nc3ccc4c(O)ccnc4c3nc12`, for which the pIC50 was less than 8.40 in the test with NCI-H69 [1] (read-out: IC50), 5.57 with P388 and 5.68 in the test on NCI-H69 [5].
As to `CN(C)CCNC(=O)c1cccc2nc3ccc4ccncc4c3nc12`, the pIC50 in the test on NCI-H69 [1] (read-out: IC50) is 8.89; with P388, 7.80; in test [4] it was 7.10; in the test with NCI-H69 [5], 6.94; in test [6] it was 7.96. For the same compound, the Ratio is listed as 1 in test [2] and 0.8 in test [3].
As to `CN(C)CCNC(=O)c1cccc2nc3ccc4nccnc4c3nc12`, the pIC50 with NCI-H69 [1] (read-out: IC50) is 8.82; in the test with P388 it was 7.07; in test [4], 6.78; in the test with NCI-H69 [5], 6.63; in test [6] it was 7.27. For the same compound, the figures for the Ratio in test [2] and in test [3] were 0.9 and 1, respectively.
`COc1ccnc2c1ccc1nc3cccc(C(=O)NCCN(C)C)c3nc12`: the pIC50 in the test with NCI-H69 [1] (read-out: IC50) is 8.49; in the test on NCI-H69 [5], 6.91.
On to `CN(C)CCNC(=O)c1cccc2nc3ccccc3nc12`, for which the Ratio turned out to be 1 in test [2] and 0.8 in test [3]. Further, the pIC50 was 5.96 in the test with P388, 5.60 in test [4] and 5.73 in test [6].
With `COc1nccc2c1ccc1nc3cccc(C(=O)N[C@H](C)CN(C)C)c3nc12`, the pIC50 is 8.92 with NCI-H69 [1] (read-out: IC50) and 7.62 with NCI-H69 [5].
As to `COc1nccc2c1ccc1nc3cccc(C(=O)NCCN(C)C)c3nc12`, the pIC50 is 8.92 in the test with NCI-H69 [1] (read-out: IC50); 7.85 in the test with P388; 7.77 in test [4]; 7.68 with NCI-H69 [5]; 8.62 in test [6]. The Ratio in test [2] and in test [3] was 0.7 throughout.
In the case of `CN(C)CCNC(=O)c1cccc2nc3ccc4c(O)nccc4c3nc12`, the pIC50 is 8.98 with NCI-H69 [1] (read-out: IC50), 7.51 in the test with P388 and 6.88 in the test with NCI-H69 [5].
For `CN(C)CCNC(=O)c1cccc2nc3ccc4c(ccn4C)c3nc12`, in that order: 8.77, 6.66 and 6.74.
Regarding `CN(C)CCNC(=O)c1cccc2nc3ccc4[nH]cnc4c3nc12`, the pIC50 was 8.28 in the test on NCI-H69 [1] (read-out: IC50); 6.52 with P388; 6.80 in test [4]; 6.74 with NCI-H69 [5]; 7.39 in test [6]. Moreover, the Ratio in test [2] amounted to 0.9; in test [3] it was 0.8.
Regarding `COc1nccc2c1ccc1nc3cccc(C(=O)N[C@H](CO)CN(C)C)c3nc12`, the negative logarithm of the IC50 (pIC50) in the test with NCI-H69 [1] (read-out: IC50) was 8.92; with NCI-H69 [5], 7.62.
On to `CN(C)CCNC(=O)c1cccc2nc3ccc4c[nH]nc4c3nc12`, for which the pIC50 in the test on NCI-H69 [1] (read-out: IC50) was 9.02; in the test on P388 it was 7.01; in test [4], 6.71; in the test on NCI-H69 [5] it was 6.28; in test [6], 7.18. For the same compound, in test [3], the Ratio is reported as 1.1.
Turning to `CN(C)CCNC(=O)c1cccc2nc3ccc4ncccc4c3nc12`, the pIC50 in the test on NCI-H69 [1] (read-out: IC50) was 8.92; in the test with P388, 7.38; in test [4] it was 7.13; with NCI-H69 [5], 6.91; in test [6], 7.70. Also, the Ratio amounted to 0.7 in test [2] and 0.8 in test [3].
With `CN(C)CCNC(=O)c1cccc2nc3ccc4[nH]ncc4c3nc12`, the pIC50 in the test on NCI-H69 [1] (read-out: IC50) was 8.35; with P388 it was 8.17; in test [4] it was 7.68; in the test on NCI-H69 [5] it was 6.97; in test [6] it was 8.39. Also, the figures for the Ratio in test [2] and in test [3] were 4.7 and 4.2, respectively.
For `COc1cccc2c1C(=O)c1c(O)c3c(c(O)c1C2=O)C[C@@](O)(C(=O)CO)C[C@@H]3O[C@H]1C[C@H](N)[C@H](O)[C@H](C)O1` [DOXORUBICIN], the pIC50 in the test on NCI-H69 [1] is 6.86; in test [4] it was 8.02.

The values are drawn from ChEMBL document CHEMBL1135712, “Structure-activity relationships for pyrido-, imidazo-, pyrazolo-, pyrazino-, and pyrrolophenazinecarboxamides as topoisomerase-targeted anticancer agents” (J Med Chem, 2002).
